Experimental findings from PubChem BioAssay AID1259408 (Genetic Toxicology Data Bank (GENE-TOX), 2018) are described below.

This data set deals with GENE-TOX genotoxicity assays, various organisms and cells. Briefly: GENE-TOX mutagenicity studies. Conditions: for call: Assay Type: In vivo carcinogenicity studies.
[1] abbreviates: Species/Cell Type: Fischer rat embryo (RLV/1706) cells, Assay Type: Cell transformation, viral enhanced, Assay Code: CTR+, Evaluation Type: Evaluation A (Pre-1980).
[2] abbreviates: Species/Cell Type: Nonhuman, Assay Type: Sister-chromatid exchange (SCE) in vitro, Assay Code: SC2T, Evaluation Type: Evaluation B (Post-1980).
Setting [3] is: Species/Cell Type: Saccharomyces cerevisiae, Assay Type: Mitotic recombination or gene conversion, Assay Code: YEC+, Evaluation Type: Evaluation A (Pre-1980).
[4] abbreviates: Species/Cell Type: Saccharomyces cerevisiae, Assay Type: Mitotic recombination or gene conversion, Assay Code: YEH+, Evaluation Type: Evaluation A (Pre-1980).
The mark [5] stands for this setting: Species/Cell Type: Saccharomyces cerevisiae, Assay Type: Reverse gene mutation, Assay Code: YER+, Evaluation Type: Evaluation A (Pre-1980).
Where [6] appears, read: Species/Cell Type: Salmonella typhimurium (one or more of the five standard strains: TA98, TA100, TA1535, TA1537, and TA1538), Assay Type: Histidine reverse gene mutation, Ames assay, Assay Code: SALT, Evaluation Type: Evaluation A (Pre-1980).
Where [7] appears, read: Species/Cell Type: Nonhuman, Assay Type: Sister-chromatid exchange (SCE) in vitro, Assay Code: SC2+D, Dose Response: With dose response, Evaluation Type: Evaluation B (Post-1980).
Where [8] appears, read: Species/Cell Type: Salmonella typhimurium (one or more of the five standard strains: TA98, TA100, TA1535, TA1537, and TA1538), Assay Type: Histidine reverse gene mutation, Ames assay, Assay Code: SAL+, Evaluation Type: Evaluation A (Pre-1980).
Setting [9] is: Species/Cell Type: Salmonella typhimurium (one or more of the five standard strains: TA98, TA100, TA1535, TA1537, and TA1538), Assay Type: Histidine reverse gene mutation, Ames assay, Assay Code: SAL+*, Activation: With metabolic activation, Evaluation Type: Evaluation A (Pre-1980).
[10] abbreviates: Species/Cell Type: Mammalian polychromatic erythrocytes, Assay Type: Micronucleus test, chromosome aberrations, Assay Code: MNTT, Evaluation Type: Evaluation B (Post-1980).
Where [11] appears, read: Species/Cell Type: Human lymphocytes, Assay Type: Sister-chromatid exchange (SCE) in vitro, Assay Code: SCL+D, Dose Response: With dose response, Evaluation Type: Evaluation B (Post-1980).
Where [12] appears, read: Species/Cell Type: Human, Assay Type: Sister-chromatid exchange (SCE) in vitro, Assay Code: SC1+D, Dose Response: With dose response, Evaluation Type: Evaluation B (Post-1980).

The source made the active and inactive calls. The rule behind the calls is not given here.

`ClC=C(Cl)Cl`: the mutagenic call by setting is: (Species/Cell Type: Drosophila melanogaster, Assay Type: Sex-linked recessive lethal gene mutation, Assay Code: SRL-, Evaluation Type: Evaluation A (Pre-1980)) “inactive; negative”; under setting [1], “active; positive”; (Species/Cell Type: Mammalian polychromatic erythrocytes, Assay Type: Micronucleus test, chromosome aberrations, Assay Code: MNT+, Evaluation Type: Evaluation B (Post-1980)) “active; positive”; (Species/Cell Type: Mouse, Sex: Female, Assay Type: Spot test, gene mutation, Assay Code: MST+, Evaluation Type: Evaluation A (Pre-1980)) “active; positive”; (Species/Cell Type: Mouse, Sex: Male, Assay Type: Sperm morphology, Assay Code: SPI+, Evaluation Type: Evaluation A (Pre-1980)) “active; positive”; under setting [2], “no conclusion”. For the same molecule, the mutagenic call is, setting by setting: (Species/Cell Type: Saccharomyces cerevisiae, Assay Type: Forward and reverse gene mutation, mitotic recombination and gene conversion, host-mediated assay, Assay Code: HME+, Evaluation Type: Evaluation A (Pre-1980)) “active; positive”; under setting [3], “active; positive”; under setting [4], “active; positive”; under setting [5], “active; positive”; under setting [6], “no conclusion”; (Species/Cell Type: Tradescantia species, Assay Type: Gene mutation, Assay Code: TRM+, Evaluation Type: Evaluation A (Pre-1980)) “active; positive”. Further, the call (Species/Cell Type: Nonhuman, Assay Code: CCG+L, Evaluation Type: Evaluation A (Pre-1980)) was “active; positive”.
As for `Cc1cccc(N=Nc2ccc(N(C)C)cc2)c1`, the mutagenic call by setting is: (Species/Cell Type: Drosophila melanogaster, Assay Type: Sex-linked recessive lethal gene mutation, Assay Code: SRLT, Evaluation Type: Evaluation A (Pre-1980)) “no conclusion”; (Species/Cell Type: Escherichia coli polA (W3110 vs P3478), Assay Type: Rec-assay, DNA effects (bacterial DNA repair), Assay Code: RE2-, Evaluation Type: Evaluation A (Pre-1980)) “inactive; negative”; (Species/Cell Type: Escherichia coli polA (W3119 vs P3478), Assay Type: Rec-assay, DNA effects (bacterial DNA repair), Assay Code: RE1T, Evaluation Type: Evaluation A (Pre-1980)) “no conclusion”; under setting [1], “active; positive”; (Species/Cell Type: Human diploid fibroblasts, Assay Type: Unscheduled DNA synthesis (UDS) in vitro, DNA effects, Assay Code: UDH-, Evaluation Type: Evaluation A (Pre-1980)) “inactive; negative”; (Species/Cell Type: Mouse embryo (AKR/ME) cells, Assay Type: Cell transformation, Assay Code: CTK-, Evaluation Type: Evaluation A (Pre-1980)) “inactive; negative”. Also, the mutagenic call by setting is: (Species/Cell Type: Neurospora crassa, Assay Type: Forward gene mutation, Assay Code: NEF+, Evaluation Type: Evaluation A (Pre-1980)) “active; positive”; under setting [7], “active; positive”; (Species/Cell Type: Nonhuman, Assay Type: Sister-chromatid exchange (SCE) in vivo, Assay Code: SC3+, Evaluation Type: Evaluation B (Post-1980)) “active; positive”; (Species/Cell Type: Rat primary hepatocytes, Assay Type: Unscheduled DNA synthesis (UDS) in vitro, DNA effects, Assay Code: UDP+D, Dose Response: With dose response, Evaluation Type: Evaluation A (Pre-1980)) “active; positive”; (Species/Cell Type: Saccharomyces cerevisiae, Assay Type: Mitotic recombination or gene conversion, Assay Code: YEH+*, Activation: With metabolic activation, Evaluation Type: Evaluation A (Pre-1980)) “active; positive”; (Species/Cell Type: Salmonella typhimurium, Assay Type: Forward and reverse gene mutation, host-mediated assay, Assay Code: HMA-, Evaluation Type: Evaluation A (Pre-1980)) “inactive; negative”. Also, under “Species/Cell Type: Syrian hamster embryo (SHE) cells, Assay Type: Cell transformation, clonal assay, Assay Code: CTCT, Evaluation Type: Evaluation A (Pre-1980)”, the mutagenic call was “no conclusion”. Further, for the setting “Species/Cell Type: Nonhuman, Assay Code: CCG+, Evaluation Type: Evaluation A (Pre-1980)”, the call was “active; positive”.
As to `COc1ccc2c3c1O[C@H]1[C@@H](O)C=C[C@H]4[C@@H](C2)N(C)CC[C@@]341`, the mutagenic call is, setting by setting: (Species/Cell Type: Mammalian polychromatic erythrocytes, Assay Type: Micronucleus test, chromosome aberrations, Assay Code: MNTT, Evaluation Type: Evaluation A (Pre-1980)) “no conclusion”; (Species/Cell Type: Mouse, Sex: Male, Assay Type: Sperm morphology, Assay Code: SPI-, Evaluation Type: Evaluation A (Pre-1980)) “inactive; negative”.
As for `CCOc1ccccc1[N+](=O)[O-]`, the mutagenic call under setting [8] was “active; positive”.
`CC(=O)Nc1c(I)c(NC(C)=O)c(I)c(C(=O)O)c1I`: the mutagenic call reads like this: (Species/Cell Type: Human lymphocytes, Assay Type: Sister-chromatid exchange (SCE) in vitro, Assay Code: SCLT, Evaluation Type: Evaluation B (Post-1980)) “no conclusion”; (Species/Cell Type: Human, Assay Type: Sister-chromatid exchange (SCE) in vitro, Assay Code: SC1T, Evaluation Type: Evaluation B (Post-1980)) “no conclusion”.
With `[CH3][Hg][Cl]`, the mutagenic call reads like this: (Species/Cell Type: Bacillus subtilis (H17 vs M45), Assay Type: Rec-assay, spot test, DNA effects (bacterial DNA repair), Assay Code: REW+, Evaluation Type: Evaluation A (Pre-1980)) “active; positive”; (Species/Cell Type: Human lymphocytes, Assay Type: Sister-chromatid exchange (SCE) in vitro, Assay Code: SCL+, Evaluation Type: Evaluation B (Post-1980)) “active; positive”; (Species/Cell Type: Human, Assay Type: Sister-chromatid exchange (SCE) in vitro, Assay Code: SC1+, Evaluation Type: Evaluation B (Post-1980)) “active; positive”; (Species/Cell Type: Nonhuman, Assay Type: Sister-chromatid exchange (SCE) in vivo, Assay Code: SC3T, Evaluation Type: Evaluation B (Post-1980)) “no conclusion”; (Species/Cell Type: Rodents, Sex: Male, Assay Type: Dominant lethal test, Assay Code: DLT-, Evaluation Type: Evaluation A (Pre-1980)) “inactive; negative”.
With `Cc1ccc(N=O)cc1`, the mutagenic call under setting [3] is “active; positive”.
With `c1ccc2c(c1)ccc1ncccc12`, the mutagenic call under setting [9] is “active; positive”.
In the case of `Cc1ccc2c(c1O)N[C@H](O)[C@@H]1CC(/C=C/C(N)=O)=CN1C2=O`, the mutagenic call reads like this: under setting [10], “no conclusion”; under setting [7], “active; positive”; under setting [3], “active; positive”; under setting [4], “active; positive”; under setting [5], “active; positive”; under setting [6], “no conclusion”.
Take `CCCSP(=S)(OCC)Oc1ccc(SC)cc1` (stereo not given): the mutagenic call under setting [2] was “no conclusion”.
In the case of `Nc1ccc(S(=O)(=O)O)c2ccccc12`, the mutagenic call under setting [6] is recorded as “no conclusion”.
Take `O=P(O)(O)Oc1c(Br)cc(Br)cc1-c1cc(Br)cc(Br)c1O`: under setting [10], the mutagenic call is recorded as “no conclusion”.
On to `CC1(C)CN1`, for which, under “Species/Cell Type: Schizosaccharomyces pombe, Assay Type: Reverse gene mutation, Assay Code: YEZ+, Evaluation Type: Evaluation A (Pre-1980)”, the mutagenic call is “active; positive”.
For `CC(C)CN(N=O)C(N)=O`, the mutagenic call (Species/Cell Type: Arabidopsis species, Assay Type: Gene mutation, Assay Code: ARM+D, Dose Response: With dose response, Evaluation Type: Evaluation A (Pre-1980)) was “active; positive”.
Consider `Cc1ccc2cc3c(ccc4ccccc43)cc2c1`, for which the mutagenic call under setting [7] was “active; positive” and the mutagenic call under setting [9] is “active; positive”.
Turning to `CC1=C(O)C(=O)CC1`, the mutagenic call by setting is: under setting [11], “active; positive”; under setting [12], “active; positive”.
With `O=C1OC(O)C(C(Cl)Cl)=C1Cl` (stereo not given), the mutagenic call (Species/Cell Type: Mammalian polychromatic erythrocytes, Assay Type: Micronucleus test, chromosome aberrations, Assay Code: MNT-, Evaluation Type: Evaluation B (Post-1980)) is “inactive; negative”.
Regarding `NC(=O)C(=Cc1ccc([N+](=O)[O-])o1)c1ccccc1`, the mutagenic call under setting [8] is “active; positive”.
As for `Nc1ccn([C@H]2C[C@H](O)[C@@H](CO)O2)c(=O)n1`, the mutagenic call was “inactive; negative” (Species/Cell Type: Chinese hamster lung (V79) cells, Assay Type: Forward gene mutation at the HPRT or ouabain locus, Assay Code: V79-, Evaluation Type: Evaluation A (Pre-1980)); “inactive; negative” (Species/Cell Type: Glycine max (soybean), Assay Type: Gene mutation, Assay Code: GLM-, Evaluation Type: Evaluation A (Pre-1980)); “no conclusion” (Species/Cell Type: Human lymphocytes, Assay Type: Sister-chromatid exchange (SCE) in vitro, Assay Code: SCLT, Evaluation Type: Evaluation A (Pre-1980)); “no conclusion” (Species/Cell Type: Human, Assay Type: Sister-chromatid exchange (SCE) in vitro, Assay Code: SC1T, Evaluation Type: Evaluation A (Pre-1980)); “no conclusion” under setting [2].
On to `OC1c2c(c3cc4ccccc4cc3c3ccccc23)C=C[C@H]1O` (stereo not given in full), for which the mutagenic call under setting [7] was “active; positive”.
Take `CCCCOc1ccc(CC(=O)OC)cc1CSC(=N)N`: under “Species/Cell Type: Saccharomyces cerevisiae, Assay Type: Reverse gene mutation, Assay Code: YERT, Evaluation Type: Evaluation A (Pre-1980)”, the mutagenic call was “no conclusion”.
Regarding `O=[N+]([O-])c1ccc(C2CO2)cc1` (stereo not given), the mutagenic call reads like this: under setting [11], “active; positive”; under setting [12], “active; positive”.
